Consider 2 compounds from patent publication US20090131356A1, “miR-15, miR-26, miR-31, miR-145, miR-147, miR-188, miR-215, miR-216, miR-331, mmu-miR-292-3P REGULATED GENES AND PATHWAYS AS TARGETS FOR THERAPEUTIC INTERVENTION” (ASURAGEN, INC., priority 2006, published 2009).

One data set concerns SCLC and NSCLC cells. The conditions noted are these: various lung cancer cells, SCLC and NSCLC (Tsai et al., 1993; Ohsaki et al., 1992); cited from earlier work.
Data set [1] has as its system human prostate cancer cells PPC-1, Du145 and RWPE2. Kind of data set: Alamar Blue proliferation assay, average over prostate cancer cell lines. In kind it is cell-based. The conditions noted are these: 30 nM, 4-7 days post-transfection; average of PPC-1, Du145, RWPE2; vs negative control miRNA (100%). The source says:
The inventors assessed the therapeutic effect of hsa-miR-147 for prostate cancer by using 4 individual human prostate cancer cell lines. To measure cellular proliferation of prostate cancer cells, the following prostate cancer cell lines were used: PPC-1 and PC3, derived from a bone metastasis; Du145, derived from a brain metastasis; RWPE2, derived from prostate cells immortalized by human papillomavirus 18 and transformed by the K-RAS oncogene (Bello et al., 1997; Stone et al., 1978; Brothman et al., 1991). PC3, PPC-1, and Du145 cells lack expression of the prostate-specific antigen (PSA) and are independent of androgen receptor (AR) signaling. In contrast, RWPE2 cells test positive for PSA and AR.
PPC-1, Du145 and RWPE2 cells were transfected with synthetic hsa-miR-147 (Pre-miR™-hsa-miR-147, Ambion cat. no. AM17100) or negative control miRNA (NC; Pre-miR™ microRNA Precursor Molecule-Negative Control #2; Ambion cat. no. AM17111) in a 96-well format using a lipid-based transfection reagent. […] Proliferation was assessed 4-7 days post-transfection using Alamar Blue™ (Invitrogen) following the manufacturer's instructions. […] Fluorescent light units (FLU) were measured after 3 hours, normalized to the control, and plotted as percent change in proliferation. […]

Data set [2] deals with parental lung cancer cells. Briefly: Alamar Blue proliferation assay, average over parental lung cancer cell lines. In kind it is cell-based, human. The note with it: average of 12 parental lung cancer cell lines; vs negative control miRNA (=100%); 72 hours (Calu-3 10 days). The source says: The inventors assessed the therapeutic effect of hsa-miR-147 for lung cancer by using 12 individual lung cancer cell lines. To measure cellular proliferation of lung cancer cells, the following parental non-small cell lung cancer (NSCLC) cells were used: cells derived from lung adenocarcinoma (A549, H1299, H522, H838, Calu-3, HCC827, HCC2935), cells derived from lung squamous cell carcinoma (H520, H226), cells derived from lung adenosquamous cell carcinoma (H596), cells derived from lung bronchioalveolar carcinoma (H1650), and cells derived from lung large cell carcinoma (H460). In addition to these parental cell lines, highly metastatic NSCLC cells were used that stably express the firefly luciferase gene: A549-luc, H460-luc, HCC827-luc, H1650-luc, H441-luc. Unlike the parental cell lines, these metastatic cells readily migrate to distant sites of the test animal and form metastases upon subcutaneous, orthotopic, or intravenous injection. Synthetic hsa-miR-147 or negative control miRNA was delivered via lipid-based transfection into A549, H1299, H522, H838, Calu-3, HCC827, HCC2935, H520, H596, H1650, H460, A549-luc, H460-luc, HCC827-luc, H1650-luc, H441-luc cells and via electroporation into H226 cells. […]
In general terms: Alamar Blue is a resazurin reagent that responds to reducing activity.

Turning to `COc1cc([C@@H]2c3cc4c(cc3[C@@H](O[C@@H]3O[C@@H]5CO[C@@H](C)O[C@H]5[C@H](O)[C@H]3O)[C@H]3COC(=O)[C@H]23)OCO4)cc(OC)c1O` [Etoposide, etoposide], the concentration for half-maximal inhibition (IC50) (usually the concentration at which inhibition is half-maximal) in the data set on SCLC and NSCLC cells was 1 to 25 µM.

As to “hsa-miR-147: Synthetic pre-miR-147 (Ambion AM17100; Dharmacon in vivo); mature sequence GUGUGUGGAAAUGCUUCUGC, MIMAT0000251, SEQ ID NO:114 (synthetic pre-miR (Ambion/Dharmacon), chemistry not given here; listed as Homo sapiens)”, the “inhibition of cellular proliferation, on average” value in data set [1] was 27.48%; in data set [2], 25%.
